Data as given in paper PMC6407578, “Synthesis and biological evaluation of ursolic acid derivatives bearing triazole moieties as potential anti-Toxoplasma gondii agents” (Journal of Enzyme Inhibition and Medicinal Chemistry, 2019).
pIC50: −log10 of the molar value. Where two headings read alike, the source gives them in different places.

Columns and labels:
T. gondii tachyzoites = experiment: In vivo anti-T. gondii activity, acute infection model in KM mice (intraperitoneal tachyzoite count); parameters: species or system Toxoplasma gondii; conditions: T. gondii-infected KM mice, 100 mg/kg by gavage once a day for 4 days; for inhibitory rate of tachyzoites: ascitic fluid; for Amount of tachyzoite: intraperitoneal tachyzoites
Description: (§1) Thirty female KM mice were used to establish an animal model of acute T. gondii infection. These were randomly divided into five groups: infected untreated, normal, infected with spiramycin treatment, infected with 1e treatment and infected with 3d treatment. Each group consisted of six mice. Four hours after infection, 100 mg/kg of the compounds was administered to the mice by gavage, once a day for 4 consecutive days, whereas the untreated group was administered the same dose of physiological saline. On the fifth day, blood from the eyes of mice was collected and they were sacrificed by cervical dislocation. Their abdominal cavity was rinsed with sterile physiological saline to collect the parasites/tachyzoites. These were counted under the light microscope, and the inhibition rate of parasites was calculated. The liver and spleen were dissected and liver and spleen indexes, serum alanine aminotransferase (ALT), aspartate aminotransferase (AST), and liver homogenate glutathione (GSH) and malonaldehyde (MDA) were determined.

HeLa cells = experiment: Cytotoxicity on HeLa host cells (MTT); assay type: cell-based; conditions: median toxicity dose, cytotoxicity against host cells, 24 h
Description: (§2) The cytotoxicity of compounds was determined using the previously published thiazolyl blue-based colorimetric method. For this, HeLa cells were used as host cells and their ability to resist invasion by T. gondii RH strain tachyzoites in vitro was checked. The cells were plated in 96-well plates at an appropriate density to ensure exponential growth throughout the experimental period (3 × 10^3 cells per well) and then allowed to adhere for 24 h at 37 °C. The cells were infected with T. gondii (1.5 × 10^4 tachyzoites/well), followed by incubation for 24 h. All compounds were prepared in dimethyl sulfoxide (DMSO) at a stock concentration of 100 mM. Serial dilutions (1–1000 μM) of each compound were tested. Spiramycin was used as a positive control. After 24 h of incubation, 10 μL of MTT solution were added to each well and cells were incubated for a further 2 h. The optical density (OD) was read on a microplate reader at a wavelength of 492 nm. The IC50 in HeLa cells, IC50 in T. gondii and selectivity index were calculated using Microsoft Excel.

[1] = Liver/spleen indexes, serum ALT/AST, liver MDA/GSH in T. gondii-infected KM mice; assay type: in vivo; conditions: 100 mg/kg; for GSH content (liver homogenate): compared to the untreated group; for spleen index: effect on the infection-induced increase, not statistically significant
Description: as §1

[2] = tested on: T. gondii RH strain tachyzoites; experiment: In vitro T. gondii growth inhibition in HeLa host cells (MTT); assay type: cell-based, Toxoplasma gondii; conditions: for SI (selectivity index): IC50 in HeLa cells/IC50 in T. gondii; for pIC50: median inhibitory concentration, tachyzoite inhibition, HeLa host cells, 24 h
Description: as §2

T. gondii = tested on: T. gondii; parameters: method as in PMID 25288090; conditions: cited from earlier work
[3] = T. gondii-infected KM mice, compared with the untreated group

In the case of `C[C@H]1[C@H](C)CC[C@]2(C(=O)O)CC[C@]3(C)C(=CC[C@@H]4[C@@]5(C)C/C(=C\c6cn(-c7ccccc7Cl)nn6)C(=O)C(C)(C)[C@@H]5CC[C@]43C)[C@H]12` [1e, (1S,2R,4aS,6aS,6bR,8aR,12aR,12bR,14bS,E)-11-((1–(2-chlorophenyl)-1H-1,2,3-triazol-4-yl)methylene)-1,2,6a,6b,9,9,12a-heptamethyl-10-oxo-1,3,4,5,6,6a,6b,7,8,8a,9,10,11,12,12a,12b,13,14b-octadecahydropicene-4a(2H)-carboxylic acid], the “inhibitory rate of tachyzoites” value (T. gondii tachyzoites) was 37.0%, the Amount of tachyzoite (T. gondii tachyzoites) was 141.8 ×10^4 and the pIC50 (HeLa cells; Homo sapiens, HeLa) was 3.33. The “GSH content (liver homogenate)” value ([1]; T. gondii-infected KM mice) was “significantly increase”, the “serum ALT and AST levels” value [1, 3] was “striking reduction” and the “SI (selectivity index)” value [2] was 1.95. For the same compound, the pIC50 ([2]; Toxoplasma gondii) was 3.62.
For `C[C@H]1[C@H](C)CC[C@]2(C(=O)OCCn3cnnc3-c3ccc([N+](=O)[O-])cc3)CC[C@]3(C)C(=CC[C@@H]4[C@@]5(C)CCC(O)C(C)(C)[C@@H]5CC[C@]43C)[C@H]12` (stereo partly drawn) [3d, 2 –(3-(4-nitrophenyl)-4H-1,2,4-triazol-4-yl)ethyl(1S,2R,4aS,6aS,6bR,8aR,12aR,12bR,14bS)-10-hydroxy-1,2,6a,6b,9,9,12a-heptamethyl-1,3,4,5,6,6a,6b,7,8,8a,9,10,11,12,12a,12b,13,14b-octadecahydropicene-4a(2H)-carboxylate], the “inhibitory rate of tachyzoites” value (T. gondii tachyzoites) was 70.4%, the Amount of tachyzoite (T. gondii tachyzoites) was 66.6 ×10^4 and the pIC50 (HeLa cells; Homo sapiens, HeLa) was 3.64. For the same compound, the “GSH content (liver homogenate)” value ([1]; T. gondii-infected KM mice) was “significantly increase”, the “levels of MDA (liver homogenate)” value [1, 3] was “significantly decreased” and the “serum ALT and AST levels” value [1, 3] was “striking reduction”. For the same compound, the spleen index ([1]; T. gondii-infected KM mice) was “subjugated”, the “SI (selectivity index)” value [2] was 1.77 and the pIC50 ([2]; Toxoplasma gondii) was 3.89.
In the case of Spiramycin [reference compound], the “inhibitory rate of tachyzoites” value (T. gondii tachyzoites) was 56.8%, the Amount of tachyzoite (T. gondii tachyzoites) was 97.2 ×10^4 and the pIC50 (HeLa cells) was 3.72. The “levels of MDA (liver homogenate)” value [1, 3] was “significantly decreased”, the spleen index ([1]; T. gondii-infected KM mice) was “subjugated” and the “SI (selectivity index)” value [2] was 0.72. It also gave a pIC50 [2] of 3.58.
In the case of `C[C@H]1[C@H](C)CC[C@]2(C(=O)O)CC[C@]3(C)C(=CC[C@@H]4[C@@]5(C)C/C(=C\c6cn(-c7ccccc7F)nn6)C(=O)C(C)(C)[C@@H]5CC[C@]43C)[C@H]12` [1b, (1S,2R,4aS,6aS,6bR,8aR,12aR,12bR,14bS,E)-11-((1–(2-fluorophenyl)-1H-1,2,3-triazol-4-yl)methylene)-1,2,6a,6b,9,9,12a-heptamethyl-10-oxo-1,3,4,5,6,6a,6b,7,8,8a,9,10,11,12,12a,12b,13,14b-octadecahydropicene-4a(2H)-carboxylic acid], the melting point was > 250 °C, the pIC50 (HeLa cells; Homo sapiens, HeLa) was 3.38 and the “SI (selectivity index)” value [2] was 0.59. The pIC50 ([2]; Toxoplasma gondii) was 3.15.
In the case of `S=C1N=NC(c2cccs2)=N1` [compound 2, 3-(thiophen-2-yl)-1,2,4-triazole-5-thione], the selectivity value (T. gondii; 3[H]uracil incorporation method) is given as 4.58 and the selectivity value (T. gondii; qRT-PCR) is given as 5.21.
In the case of `C[C@H]1[C@H](C)CC[C@]2(C(=O)OCC(=O)NCc3cn(-c4ccc(Cl)cc4)nn3)CC[C@]3(C)C(=CC[C@@H]4[C@@]5(C)CCC(O)C(C)(C)[C@@H]5CC[C@]43C)[C@H]12` (stereo partly drawn) [2b, (1S,2R,4aS,6aS,6bR,8aR,12aR,12bR,14bS)-2-((1–(4-chlorophenyl)-1H-1,2,3-triazol-4-yl)methylamino)-2-oxoethyl-10-hydroxy-1,2,6a,6b,9,9,12a-heptamethyl-1,2,3,4,4a,5,6,6a,6b,7,8,8a,9,10,11,12,12a,12b,13,14b-icosahydropicene-4a-carboxylate], the melting point was 176 to 178 °C, the pIC50 (HeLa cells; Homo sapiens, HeLa) was 3.48 and the pIC50 ([2]; Toxoplasma gondii) was < 3.00.
With `C[C@H]1[C@H](C)CC[C@]2(C(=O)O)CC[C@]3(C)C(=CC[C@@H]4[C@@]5(C)CC[C@H](O)C(C)(C)[C@@H]5CC[C@]43C)[C@H]12` [Ursolic Acid, Ursolic acid] the “inhibitory rate of tachyzoites” value (T. gondii tachyzoites) was 65.4%, the Amount of tachyzoite (T. gondii tachyzoites) was 77.9 ×10^4 and the pIC50 (HeLa cells; Homo sapiens, HeLa) was 4.35. The “levels of MDA (liver homogenate)” value [1, 3] was “significantly decreased”, the spleen index ([1]; T. gondii-infected KM mice) was “subjugated” and the “serum ALT and AST levels” value ([1]; mouse, in vivo) was “striking reduction”. The “SI (selectivity index)” value [2] was 0.62 and the pIC50 ([2]; Toxoplasma gondii) was 4.14.
With `C[C@H]1[C@H](C)CC[C@]2(C(=O)O)CC[C@]3(C)C(=CC[C@@H]4[C@@]5(C)C/C(=C\c6cn(-c7ccc(Cl)c(Cl)c7)nn6)C(=O)C(C)(C)[C@@H]5CC[C@]43C)[C@H]12` [1f, (1S,2R,4aS,6aS,6bR,8aR,12aR,12bR,14bS,E)-11-((1–(3,4-dichlorophenyl)-1H-1,2,3-triazol-4-yl)methylene)-1,2,6a,6b,9,9,12a-heptamethyl-10-oxo-1,3,4,5,6,6a,6b,7,8,8a,9,10,11,12,12a,12b,13,14b-octadecahydropicene-4a(2H)-carboxylic acid] the melting point was > 250 °C, the pIC50 (HeLa cells; Homo sapiens, HeLa) was 3.39 and the “SI (selectivity index)” value [2] was 0.88. The pIC50 ([2]; Toxoplasma gondii) was 3.34.
